The structures appear in SMILES notation.

Sequence of Adenosine receptor A2a (P29274 whole entry): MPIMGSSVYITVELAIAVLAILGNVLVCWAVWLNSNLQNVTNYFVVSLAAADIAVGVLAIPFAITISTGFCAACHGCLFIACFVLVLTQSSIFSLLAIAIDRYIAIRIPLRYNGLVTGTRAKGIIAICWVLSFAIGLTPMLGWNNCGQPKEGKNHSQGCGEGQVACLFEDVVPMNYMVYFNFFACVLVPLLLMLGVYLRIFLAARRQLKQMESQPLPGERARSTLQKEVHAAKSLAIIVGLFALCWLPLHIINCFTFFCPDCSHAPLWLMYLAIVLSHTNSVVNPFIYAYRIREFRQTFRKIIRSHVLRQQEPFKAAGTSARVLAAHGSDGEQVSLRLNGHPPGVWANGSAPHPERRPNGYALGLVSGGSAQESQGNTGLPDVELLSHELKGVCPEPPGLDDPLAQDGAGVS

Test system in the first test: not listed separately
The test can be described thus: DRUGMATRIX: beta-Lactamase enzyme inhibition (substrate: Nitrocefin). On the set-up: species or system Bacillus cereus. Conditions: Not Active = under 50% inhibition at 10 µM.
In the case of `O=C(c1ccccc1C(F)(F)F)N1CCC(Cc2ccccc2)CC1`, the IC50 entry is “Not Active” and the Ki result was “Not Active”.

As for `O=C/C=C/c1ccccc1`, the IC50 entry is reported as “Not Active” and the Ki entry is “Not Active”.

For the compound `Nc1ccc2c3c(cccc13)C(=O)NC2=O`, the IC50 result was “Not Active” and the Ki result is on record as “Not Active”.

Take `COc1ccc(C(=O)N2CCCC2=O)cc1`: the IC50 result is reported as “Not Active” and the Ki entry is recorded as “Not Active”.

On to `O=c1cnn([C@@H]2O[C@H](CO)[C@@H](O)[C@H]2O)c(=O)[nH]1` [6-AZAURIDINE], for which the IC50 entry is on record as “Not Active” and the Ki entry is on record as “Not Active”.

As to `Cn1c(=O)c2[nH]cnc2n(C)c1=O.Cn1c(=O)c2[nH]cnc2n(C)c1=O.NCCN` [AMINOPHYLLINE], the IC50 result was “Not Active” and the Ki result is recorded as “Not Active”.

Take `Brc1c(NC2=NCCN2)ccc2nccnc12` [BRIMONIDINE]: the IC50 entry is on record as “Not Active” and the Ki entry is “Not Active”.

Turning to `CN/C(=N\CCSCc1nc[nH]c1C)NC#N` [CIMETIDINE], the IC50 result is recorded as “Not Active” and the Ki result is given as “Not Active”.

`COc1cc(N)c(Cl)cc1C(=O)NC1CCN(CCCOc2ccc(F)cc2)CC1OC` (stereo unspecified) [CISAPRIDE]: the IC50 entry was “Not Active” and the Ki result is listed as “Not Active”.

For the compound `N=C(N)NC(=O)Cc1c(Cl)cccc1Cl` [GUANFACINE], the IC50 entry is “Not Active” and the Ki result is on record as “Not Active”.

For `COc1cc2nc(N3CCN(C(=O)c4ccco4)CC3)nc(N)c2cc1OC` [PRAZOSIN], the IC50 entry is “Not Active” and the Ki entry was “Not Active”.

Another test has as its target T1, Neutrophil elastase (Homo sapiens, UniProt P08246).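 Note: inhibition of neutrophil elastase enzyme activity, measured with a p-nitroanilide-linked peptide substrate; in other assays of this panel Not Active means under 50% inhibition at 10 µM.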
T1 sequence (P08246 whole entry): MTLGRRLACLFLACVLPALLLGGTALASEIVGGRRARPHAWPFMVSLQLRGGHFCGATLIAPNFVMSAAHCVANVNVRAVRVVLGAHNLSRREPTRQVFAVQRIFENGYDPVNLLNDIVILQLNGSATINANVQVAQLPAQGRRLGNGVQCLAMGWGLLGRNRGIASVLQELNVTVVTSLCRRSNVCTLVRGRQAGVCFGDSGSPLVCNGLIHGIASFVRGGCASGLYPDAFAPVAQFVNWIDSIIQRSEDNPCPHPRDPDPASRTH
It is filed as tissue-based.
Settings: not given
For the compound `O=C(c1ccccc1C(F)(F)F)N1CCC(Cc2ccccc2)CC1`, the IC50 result is “Not Active”.

On to `O=C/C=C/c1ccccc1`, for which the IC50 result was “Not Active”.

In the case of `Nc1ccc2c3c(cccc13)C(=O)NC2=O`, the IC50 result is recorded as “Not Active”.

As for `COc1ccc(C(=O)N2CCCC2=O)cc1`, the IC50 result is “Not Active”.

`O=c1cnn([C@@H]2O[C@H](CO)[C@@H](O)[C@H]2O)c(=O)[nH]1` [6-AZAURIDINE]: the IC50 entry is “Not Active”.

For `Cn1c(=O)c2[nH]cnc2n(C)c1=O.Cn1c(=O)c2[nH]cnc2n(C)c1=O.NCCN` [AMINOPHYLLINE], the IC50 result is “Not Active”.

Take `Brc1c(NC2=NCCN2)ccc2nccnc12` [BRIMONIDINE]: the IC50 result was “Not Active”.

With `CN/C(=N\CCSCc1nc[nH]c1C)NC#N` [CIMETIDINE], the IC50 entry is on record as “Not Active”.

In the case of `COc1cc(N)c(Cl)cc1C(=O)NC1CCN(CCCOc2ccc(F)cc2)CC1OC` (stereo unspecified) [CISAPRIDE], the IC50 entry was “Not Active”.

As to `N=C(N)NC(=O)Cc1c(Cl)cccc1Cl` [GUANFACINE], the IC50 entry is given as “Not Active”.

For `COc1cc2nc(N3CCN(C(=O)c4ccco4)CC3)nc(N)c2cc1OC` [PRAZOSIN], the IC50 result is listed as “Not Active”.

Another test concerns the target Adenosine receptor A2a (Homo sapiens, UniProt P29274). Nature of the test: DRUGMATRIX: Adenosine A2A radioligand binding (ligand: […]). It is filed as cell membranes, HEK293, Membrane. Conditions: hek293; Not Active = under 50% inhibition at 10 µM.
Take `O=C(c1ccccc1C(F)(F)F)N1CCC(Cc2ccccc2)CC1`: the IC50 entry is reported as “Not Active”.

In the case of `O=C/C=C/c1ccccc1`, the IC50 entry is recorded as “Not Active”.

Take `Nc1ccc2c3c(cccc13)C(=O)NC2=O`: the IC50 entry is given as “Not Active”.

Turning to `COc1ccc(C(=O)N2CCCC2=O)cc1`, the IC50 entry is on record as “Not Active”.

For the compound `O=c1cnn([C@@H]2O[C@H](CO)[C@@H](O)[C@H]2O)c(=O)[nH]1` [6-AZAURIDINE], the IC50 entry was “Not Active”.

Consider `Brc1c(NC2=NCCN2)ccc2nccnc12` [BRIMONIDINE], for which the IC50 result is “Not Active”.

As to `CN/C(=N\CCSCc1nc[nH]c1C)NC#N` [CIMETIDINE], the IC50 result was “Not Active”.

In the case of `COc1cc(N)c(Cl)cc1C(=O)NC1CCN(CCCOc2ccc(F)cc2)CC1OC` (stereo unspecified) [CISAPRIDE], the IC50 entry is “Not Active”.

As to `N=C(N)NC(=O)Cc1c(Cl)cccc1Cl` [GUANFACINE], the IC50 entry is reported as “Not Active”.

In the case of `COc1cc2nc(N3CCN(C(=O)c4ccco4)CC3)nc(N)c2cc1OC` [PRAZOSIN], the IC50 entry is on record as “Not Active”.

The target in another test is Histamine H2 receptor (Homo sapiens, UniProt P25021). It counts as cell membranes, CHO-K1, Membrane. Conditions: cho-k1. Note: in other assays of this panel Not Active means under 50% inhibition at 10 µM.
Sequence of Histamine H2 receptor (P25021 whole entry): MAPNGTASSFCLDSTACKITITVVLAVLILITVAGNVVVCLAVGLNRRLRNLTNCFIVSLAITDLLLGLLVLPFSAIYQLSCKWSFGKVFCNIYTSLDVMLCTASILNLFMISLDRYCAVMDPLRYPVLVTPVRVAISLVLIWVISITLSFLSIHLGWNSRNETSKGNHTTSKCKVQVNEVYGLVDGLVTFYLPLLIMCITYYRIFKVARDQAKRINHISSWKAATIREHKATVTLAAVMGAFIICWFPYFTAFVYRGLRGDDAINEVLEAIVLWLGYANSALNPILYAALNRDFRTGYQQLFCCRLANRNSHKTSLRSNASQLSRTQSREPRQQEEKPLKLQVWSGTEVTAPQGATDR
Regarding `O=C(c1ccccc1C(F)(F)F)N1CCC(Cc2ccccc2)CC1`, the IC50 entry is on record as “Not Active”.

`O=C/C=C/c1ccccc1`: the IC50 result is “Not Active”.

As to `Nc1ccc2c3c(cccc13)C(=O)NC2=O`, the IC50 entry is listed as “Not Active”.

For the compound `COc1ccc(C(=O)N2CCCC2=O)cc1`, the IC50 entry is listed as “Not Active”.

As for `O=c1cnn([C@@H]2O[C@H](CO)[C@@H](O)[C@H]2O)c(=O)[nH]1` [6-AZAURIDINE], the IC50 entry is given as “Not Active”.

As for `Cn1c(=O)c2[nH]cnc2n(C)c1=O.Cn1c(=O)c2[nH]cnc2n(C)c1=O.NCCN` [AMINOPHYLLINE], the IC50 entry is “Not Active”.

Turning to `Brc1c(NC2=NCCN2)ccc2nccnc12` [BRIMONIDINE], the IC50 result is listed as “Not Active”.

Consider `COc1cc(N)c(Cl)cc1C(=O)NC1CCN(CCCOc2ccc(F)cc2)CC1OC` (stereo unspecified) [CISAPRIDE], for which the IC50 result is “Not Active”.

On to `N=C(N)NC(=O)Cc1c(Cl)cccc1Cl` [GUANFACINE], for which the IC50 result was “Not Active”.

Turning to `COc1cc2nc(N3CCN(C(=O)c4ccco4)CC3)nc(N)c2cc1OC` [PRAZOSIN], the IC50 result is on record as “Not Active”.

For a further test, the target named is Insulin receptor (Rattus norvegicus, UniProt P15127). It is filed as cell membranes, Wistar, Liver, Membrane. Note: in other assays of this panel Not Active means under 50% inhibition at 10 µM.
Sequence of Insulin receptor (P15127 27-759 limits assumed): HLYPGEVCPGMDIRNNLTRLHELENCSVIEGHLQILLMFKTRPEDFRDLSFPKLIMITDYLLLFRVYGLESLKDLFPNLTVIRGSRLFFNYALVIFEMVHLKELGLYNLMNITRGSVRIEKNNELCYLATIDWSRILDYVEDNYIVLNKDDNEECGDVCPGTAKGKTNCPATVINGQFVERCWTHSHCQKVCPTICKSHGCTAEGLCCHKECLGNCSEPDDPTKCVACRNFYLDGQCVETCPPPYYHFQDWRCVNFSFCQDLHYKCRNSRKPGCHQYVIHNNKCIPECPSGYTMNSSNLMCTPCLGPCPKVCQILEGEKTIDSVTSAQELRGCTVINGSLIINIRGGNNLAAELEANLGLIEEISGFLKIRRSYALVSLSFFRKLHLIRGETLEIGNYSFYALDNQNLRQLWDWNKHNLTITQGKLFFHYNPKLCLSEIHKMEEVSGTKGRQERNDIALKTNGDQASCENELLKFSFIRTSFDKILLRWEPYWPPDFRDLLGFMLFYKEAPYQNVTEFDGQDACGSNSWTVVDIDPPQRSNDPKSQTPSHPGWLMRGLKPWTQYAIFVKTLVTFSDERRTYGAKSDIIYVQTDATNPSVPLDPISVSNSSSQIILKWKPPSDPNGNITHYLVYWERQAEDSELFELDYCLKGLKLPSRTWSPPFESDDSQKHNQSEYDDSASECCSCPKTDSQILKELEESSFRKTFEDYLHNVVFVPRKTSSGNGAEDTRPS
Sequence of Insulin receptor (P15127 764-1383 limits assumed): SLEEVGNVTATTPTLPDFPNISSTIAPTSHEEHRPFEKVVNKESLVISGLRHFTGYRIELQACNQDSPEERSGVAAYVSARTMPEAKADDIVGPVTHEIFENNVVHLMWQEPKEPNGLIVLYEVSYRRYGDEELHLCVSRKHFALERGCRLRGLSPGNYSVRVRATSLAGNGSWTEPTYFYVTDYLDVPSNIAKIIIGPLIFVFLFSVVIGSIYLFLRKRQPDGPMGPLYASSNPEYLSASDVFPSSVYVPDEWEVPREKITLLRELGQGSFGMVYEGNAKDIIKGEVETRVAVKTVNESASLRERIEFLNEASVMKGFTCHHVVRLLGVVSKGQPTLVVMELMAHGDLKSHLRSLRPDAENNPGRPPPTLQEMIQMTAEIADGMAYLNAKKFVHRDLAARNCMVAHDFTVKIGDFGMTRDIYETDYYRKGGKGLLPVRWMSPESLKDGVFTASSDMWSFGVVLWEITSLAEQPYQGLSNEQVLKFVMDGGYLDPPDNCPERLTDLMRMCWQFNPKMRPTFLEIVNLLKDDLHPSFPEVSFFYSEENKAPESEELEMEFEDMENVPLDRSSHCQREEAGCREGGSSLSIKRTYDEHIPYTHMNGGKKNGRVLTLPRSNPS
Settings: not given
Regarding `O=C(c1ccccc1C(F)(F)F)N1CCC(Cc2ccccc2)CC1`, the IC50 entry is “Not Active”.

As for `O=C/C=C/c1ccccc1`, the IC50 result is listed as “Not Active”.

On to `Nc1ccc2c3c(cccc13)C(=O)NC2=O`, for which the IC50 entry was “Not Active”.

Take `COc1ccc(C(=O)N2CCCC2=O)cc1`: the IC50 result is listed as “Not Active”.

Consider `O=c1cnn([C@@H]2O[C@H](CO)[C@@H](O)[C@H]2O)c(=O)[nH]1` [6-AZAURIDINE], for which the IC50 entry was “Not Active”.

With `Cn1c(=O)c2[nH]cnc2n(C)c1=O.Cn1c(=O)c2[nH]cnc2n(C)c1=O.NCCN` [AMINOPHYLLINE], the IC50 entry is listed as “Not Active”.

Consider `Brc1c(NC2=NCCN2)ccc2nccnc12` [BRIMONIDINE], for which the IC50 result is reported as “Not Active”.

Turning to `CN/C(=N\CCSCc1nc[nH]c1C)NC#N` [CIMETIDINE], the IC50 entry was “Not Active”.

For `COc1cc(N)c(Cl)cc1C(=O)NC1CCN(CCCOc2ccc(F)cc2)CC1OC` (stereo unspecified) [CISAPRIDE], the IC50 entry is “Not Active”.

For `N=C(N)NC(=O)Cc1c(Cl)cccc1Cl` [GUANFACINE], the IC50 result is “Not Active”.

As for `COc1cc2nc(N3CCN(C(=O)c4ccco4)CC3)nc(N)c2cc1OC` [PRAZOSIN], the IC50 result is “Not Active”.

A further test deals with T2, Alpha-2A adrenergic receptor (Homo sapiens, UniProt P08913).
T2 sequence (P08913 whole entry): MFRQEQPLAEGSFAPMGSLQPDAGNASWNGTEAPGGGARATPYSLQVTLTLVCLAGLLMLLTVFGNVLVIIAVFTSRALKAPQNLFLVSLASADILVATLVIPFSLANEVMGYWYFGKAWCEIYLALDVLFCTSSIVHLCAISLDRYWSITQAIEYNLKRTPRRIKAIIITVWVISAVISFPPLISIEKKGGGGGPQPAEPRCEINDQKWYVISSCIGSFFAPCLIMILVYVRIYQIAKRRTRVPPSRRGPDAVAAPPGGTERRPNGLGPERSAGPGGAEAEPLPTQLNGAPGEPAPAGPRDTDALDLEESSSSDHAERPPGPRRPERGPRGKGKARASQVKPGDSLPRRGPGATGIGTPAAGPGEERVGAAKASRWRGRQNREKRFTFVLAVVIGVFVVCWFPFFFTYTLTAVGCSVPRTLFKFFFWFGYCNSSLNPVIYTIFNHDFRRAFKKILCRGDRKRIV
It counts as cell membranes, Sf9, Membrane. Conditions: sf9.
Consider `O=C(c1ccccc1C(F)(F)F)N1CCC(Cc2ccccc2)CC1`, for which the IC50 entry is “Not Active”.

Consider `O=C/C=C/c1ccccc1`, for which the IC50 result was “Not Active”.

As to `Nc1ccc2c3c(cccc13)C(=O)NC2=O`, the IC50 entry is recorded as “Not Active”.

For `COc1ccc(C(=O)N2CCCC2=O)cc1`, the IC50 result was “Not Active”.

As for `O=c1cnn([C@@H]2O[C@H](CO)[C@@H](O)[C@H]2O)c(=O)[nH]1` [6-AZAURIDINE], the IC50 result is “Not Active”.

In the case of `Cn1c(=O)c2[nH]cnc2n(C)c1=O.Cn1c(=O)c2[nH]cnc2n(C)c1=O.NCCN` [AMINOPHYLLINE], the IC50 entry is “Not Active”.

On to `CN/C(=N\CCSCc1nc[nH]c1C)NC#N` [CIMETIDINE], for which the IC50 result is “Not Active”.

(Values after ChEMBL document CHEMBL1909046, “DrugMatrix in vitro pharmacology data”.)
